Results published in patent EP0723577B1, “DETERGENT COMPOSITIONS CONTAINING SILVER ANTI-TARNISHING AGENTS” (UNILEVER N.V., priority 1993, dated 1995).
Blank lines part the entries; values can stand above or below the compound they belong to.

Key:
[1] = Tarnish-monitoring experiments in a dishwasher, monitors visually ranked 0 to 6 against the Example 1 reference scale
Experimental: The wash program consisted of a pre-wash at 40°C, a mainwash at 55°C, two intermediate rinses, and a final rinse at 65°C.
The mainwash pH with these compositions was typically 8.7. Silver-plated spoons (2 per run) were the monitors used in the test. The spoons were supplied by Oneida Silversmiths, USA. The monitors were washed in a commercially available hand dishwash liquid and rinsed with deionized water and acetone before use. In the dishwasher the monitors were kept apart from each other in the cutlery basket. At the end of a single-run machine program, the monitors were visually analyzed for the presence of colours and the loss of gloss.
This ranking of spoons was used as a reference scale for all subsequent Examples.

[2] = Tarnish-monitoring experiments in a dishwasher with varied bleaching agent and mainwash pH, visual evaluation against the Example 1 reference scale; conditions: for reduction of tarnishing: pH 7.5 (peracetic acid 4.12%); for reduction in tarnishing: pH 10.5 (sodium hypochlorite 8.23%)
Experimental: (§1) Tarnishing-monitoring experiments were conducted, using samples A, B, C, D, E, and F at a product dosage of 40 grams per run in a Bauknecht GSF 3162 dishwasher, with an intake of 5 litres water. The mainwash pH values for compositions A and B were adjusted to 7.5; the mainwash pH values for compositions C and D were adjusted to 8.5. Two experiments (each) were conducted, using compositions E and F; the mainwash pH values were adjusted to 9.0 and 10.5, respectively. Silver-plated spoons, knives, and forks (supplied by Oneida Silversmiths, USA), were used as monitors for all experiments. The monitors were washed in a commercially available hand dishwashing liquid and rinsed with deionized water and acetone before use. At the end of the dishwashing machine program, the monitors were visually evaluated for the presence of colours and/or loss of shine, according to the reference scale described in Example 1.
as §1, with “Tarnish monitoring” for “Tarnishing-monitoring”, “conducted” for “conducted,”, “compositions” for “samples”, “D E” for “D, E,”, “available” for “available hand”
Tarnish monitoring experiments were conducted using compositions A, B, C, D, E and F at a product dosage of 40 grams per run in a Bauknecht GSF 3162 dishwasher, with an intake of 5 litres water. The mainwash pH values for compositions A and B were adjusted to 7.5; the mainwash pH values for compositions C and D were adjusted to 8.5. Two experiments (each) were conducted using compositions E and F; the mainwash pH values were adjusted to 9.0 and 10.5. respectively. Silver-plated spoons, knives and forks (supplied by Oneida Silversmiths, USA), were used as monitors for all experiments. The monitors were washed in a commercially available dishwashing liquid and rinsed with deionized water and acetone before use. At the end of the dishwashing machine program, the monitors were visually evaluated for the presence of colours and/or loss of shine, according to the reference scale described in Example 1.

physchem = format: physicochemical
Experimental: As used herein, the term "pKa" means a pH value at which 50% of the heterocyclic ring moieties of the compound (particularly the five-membered rings in the case of the purine class compounds) are in ionic form.
The pH of this solution was adjusted to 3.0 with H2SO4. The solution was then titrated with 1N NaOH to pH 11.0. A plot of mls. NaOH vs. pH for each sample was prepared. The pKa of the compound is that point where the maximum change in pH as a function of mls. NaOH is observed.

[3] = Silver plates held in the compositions for 25 minutes, evaluated for tarnishing; conditions: 4 wt.% epsilon-phthalimido peroxyhexanoic acid
Experimental: (§2) A comparison of anti-tarnishing performance of purine class compounds within the scope of the invention and azole compounds outside the invention was conducted. The selected compounds were incorporated in an amount of 1 wt.% in a machine dishwashing composition containing 4 wt.% epsilon-phthalimido peroxyhexanoic acid as the bleaching agent. The pH values of the compositions were adjusted by the addition of a 50% solution of sodium hydroxide or concentrated sulfuric acid, as necessary.
(§3) Copper plates and silver plates were held in each of the compositions for 25 minutes, removed, rinsed with deionized water and evaluated for tarnishing. […]
as §2, with “1,3-N azole” for “purine class”
as §3

[4] = Example 11: 1,2,4-triazole 1.0%

- level of tarnishing relative to the case where no anti-tarnishing agent was present ([2]; Example 11: 1,2,4-triazole 1.0%, peracetic acid, epsilon-phthalimidoperoxyhexanoic acid or sodium hypochlorite, pH 7.5 to 10.5): reduced the level of tarnishing
- pKa of compounds (physchem; deionized water): 5.4
Structure (SMILES): c1nc[nH]n1 [1,2,4-triazole]
- level at which optimum performance was achieved ([1]; Example 12): 1 % by weight
- silver tarnishing, in words ([1]; Example 12, at amounts of 0.05 % by weight): effectively reduced silver tarnishing
- reduction of tarnishing [2, 4]: 1.5 units of tarnishing
- reduction in tarnishing [2, 4]: 3.0 units
- Effective Silver Anti-Tarnishing ([3]; Example 13: 1 wt.% compound, pH of composition 8.8): Yes (A tarnish score of 3 or less was considered effective as a silver anti-tarnishing compound)

- pKa (physchem): 5.5
Structure (SMILES): c1ncc2[nH]cnc2n1 [Purine]
- level of tarnishing relative to the samples which did not contain purine ([2]; Example 4: purine 1.0%, peracetic acid pH 7.5, epsilon-phthalimidoperoxy hexanoic acid pH 8.5, sodium hypochlorite pH 9.0 and 10.5): greatest at pH values of 7.5, 8.5 and 9.0
- Effective Silver Anti-Tarnishing ([3]; Example 5: 1 wt.% compound, pH of composition 8.6): Yes (A tarnish score of 3 or less was considered effective as a silver anti-tarnishing compound)

Structure (SMILES): O=c1[nH]c(=O)[nH]c(=O)[nH]1 [cyanuric acid, 1,3,5-triazine-2,4,6(1H,3H,5H)-trione]
- level which gives optimum anti-tarnish performance ([1]; Example 9): about 1%
- appearance of the monitors ([1]; Example 9, cyanuric acid at a 2.5% level): slightly yellow appearance
- reduction of tarnishing ([2]; Example 8: cyanuric acid 1.0%): 1.5 units of tarnishing
- reduction in tarnishing ([2]; Example 8: cyanuric acid 1.0%): 3.0 units
- level of tarnishing relative to the case where no anti-tarnish agent was present ([2]; Example 8: cyanuric acid 1.0%, peracetic acid, epsilon-phthalimidoperoxyhexanoic acid or sodium hypochlorite, pH 7.5 to 10.5): reduced the level of tarnishing
